This is an account of results in patent publication US9180217B2, “Sterilization system and device” (priority 2004, dated 2015).

Assay [1] relates to bacillus stearothemophilus spores. Nature of the assay: Spore studies in NO and NO2 (BI disks in TYVEK pouches, glass vessel). The note with it: 5% in Air with Humidity Chip; Exp Time 10 min. The format is cell-based. As for the experimental part: The experiments are conducted in glass vessels in which gases can be metered in exact amounts. The tests were conducted using biological indicators made of stainless steel disks inoculated with 10^6 bacillus stearothemophilus spores. The BI disks are heat-sealed in individual TYVEK sterilization pouches and placed in a glass vessel. The vessel is filled with various mixtures of gases following specific protocols for the order and timing of gas introduction.
In one protocol, the glass vessel is evacuated to 3″ Hg absolute. Either NO or NO2, as the sterilant gas, is added in an amount that corresponds to a 5% concentration (by volume) when the vessel is completely filled with sterilant gas and diluent gas. After 5 minutes, either air or nitrogen was added to the vessel until atmospheric pressure is reached. The BI is exposed to the air or nitrogen for 10 minutes. Thereafter, the BIs, in their pouches, are removed from the vessel and taken to a microbiological hood. The biological indicators are removed from the pouches and placed in tubes with sterile tryptic soy broth, incubated at from about 55 to about 60° C., and monitored for growth.

Assay [2] deals with Staphylococcus aureus. Nature of the assay: Pressure vessel NO sterilization of dipped stainless steel strips. It counts as cell-based, Staphylococcus aureus (strain 21769). The note with it: Five Minute Sterilization Cycle, NO gas at atmospheric pressure. From the text: (§1) A glass pressure vessel is connected to a scrubbed NO gas tank source. The pressure vessel is purged five times with Argon gas to eliminate atmospheric oxygen (preventing formation of NO2•) and an additional three purges of NO are used to ensure a pure NO atmosphere and consistent results of bactericidal activity. To test the sterilization method: Bacillus subtillis var niger 9372 is used (after obtaining >80% endospore formation; a standard for ethylene oxide and autoclave test sterilization), as well as organisms commonly found on the epidermis: Staphylococcus aureus (strain 21769) and Staphylococcus epidermides (strain 21977), and the enteric organisms: Klebsiella pneumoniae (strain 21991) and Serratia marcesens (strain 21140). This particular Serratia strain has been found in previous studies to be one of the most resistant bacteria to the bactericidal effects of NO in culture. See, Raulli R et al., Recent Res Devel Microbiol 6: 177-183, 2002, the entire contents of which is incorporated by reference herein.
(§2) The organisms are cultured overnight in brain heart infusion BHI. […]
(§3) The sealed vessel is carefully opened in a laminar flow hood after all the NO had been purged with Argon. […] The samples are observed (digitally photographed) 24 hrs later, placed back in the waterbath and are measured for absorbance 72 hrs later. […]

Assay [3] concerns Bacillus subtilis. Described as above. The note with it: Five Minute Sterilization Cycle, NO gas at atmospheric pressure. The format is cell-based, Bacillus subtillis var niger 9372.
Description: as §1, §2, §3

The subject of assay [4] is Bacillus subtilis (spore). Nature of the assay: Portable system (blood storage container, diazeniumdiolate plus acidic buffer) sterilization of stainless steel strips. The note with it: Fifteen Minute Sterilization Cycle; stainless steel strip. The format is cell-based, B. subtilis (endosporulated). The text has this: Similar to Example 1, a portable system is devised using blood storage containers and other laboratory items. In this construct, a blood storage container (Nexell, Irvine, Calif.; Lifecell PL732 plastic tissue culture flask) serves as the sterilization chamber. It has multiple ports, is easily attached to tubing or other chambers, and is easily cut and heat sealed for insertion and removal of contaminated/sterilized samples. The heat seal is strong and holds well at pressure, even though 1 ATM of pressure is used experimentally. Two 60 ml syringes connected to each other and a line of tubing by a three-way stopcock are employed to mix acidic buffer in one syringe with NO-releasing diazeniumdiolate in the other syringe. The tubing is connected to the blood container/sterilization chamber.
The stopcock is turned so that the acidic buffer can be added to the syringe containing the diazeniumdiolate. The valve is immediately closed to the buffer syringe and opened to the sterilization chamber. The 300 cc sterilization chamber inflates in about 15 seconds. Experiments are performed as described above, except that the devised system is used instead of the pressure vessel.
The test organisms are cultured overnight in BHI. The cultures contained at least 10^8 CFU/ml (100-fold greater than FDA testing guidelines) based on standardized ABS595 curves for each organism. […]

Turning to `[N]=O` [NO, nitric oxide], the “spore condition (Dead/Live)” value in assay [1] is recorded as “Dead”. For the same compound, the “trials showing no bacterial growth (Killed)” value in assay [2] and in assay [3] was 3/3 Killed throughout. In addition, the “trials Killed” value in assay [4] is on record as 2/2.
